# Patent US20230058189A1, “QUINOLIN-4-ONE AND 4(1H)-CINNOLINONE COMPOUNDS AND METHODS OF USING SAME” (Frequency Therapeutics, Inc., priority 2019, published 2023)
# Target: GSK3α (Homo sapiens, UniProt P49840)
# Experiment: GSK3α in vitro enzymatic assay (Kinase-Glo Max luminescence)
# Format: biochemical
# Settings: recombinant human GSK3, 10 μM ATP; approximate values; read-out: Potency GSK3alpha
# Method: (§1) Enzymatic activities of compounds of the present disclosure can be tested using recombinant human GSK3 in an in vitro enzymatic assay to determine the ability of the compounds of the present disclosure to inhibit GSK3α and GSK3β.
# (§2) The assay was performed using Kinase-Glo® Max luminescence kinase assay kit (Promega). The assay measures kinase activity by quantitating the amount of ATP remaining in solution following a kinase reaction. The luminescent signal from the assay is correlated with the amount of ATP present and is inversely correlated with the amount of kinase activity.
# (§3) To perform the assay, compounds were diluted in 10% DMSO and 5 μl of the dilution was added to a 50 μl reaction so that the final concentration of DMSO was 1% in all of reactions. The enzymatic reactions were conducted at 30° C. for 40 minutes. The 50 μl reaction mixture contained 40 mM Tris, pH 7.4, 10 mM MgCl2, 0.1 mg/ml BSA, 2 mM DTT, 0.1 mg/ml GSK tide substrate, 10 uM ATP and GSK3. After the enzymatic reaction, 50 μl of Kinase-Glo Max Luminescence kinase assay solution (Promega) was added to each reaction and plates were incubated for 15 minutes at room temperature. Luminescence signal was measured using a BioTek Synergy 2 microplate reader.
# (§4) Kinase activity assays were performed in duplicate at each concentration. The luminescence data were analyzed using the computer software, GraphPad Prism. The difference between luminescence intensities in the absence of Kinase (Lut) and in the presence of Kinase (Luc) was defined as 100% activity (Lut-Luc). Using luminescence signal (Lu) in the presence of the compound, percent activity was calculated as: % activity={(Lut-Lu)/(Lut-Luc)}×100%, where Lu=the luminescence intensity in the presence of the compound (all percent activities below zero were shown zero in the table).
# (§5) The values of percent activity versus a series of compound concentrations were then plotted using non-linear regression analysis of Sigmoidal dose-response curve generated with the equation Y=B+(T−B)/1+10((LogEC50−X)×Hill Slope), where Y=percent activity, B=minimum percent activity, T=maximum percent activity, X=logarithm of compound and Hill Slope=slope factor or Hill coefficient. The ICs, value was determined by the concentration causing a half-maximal percent activity.
# Sequence of GSK3α (P49840 whole entry): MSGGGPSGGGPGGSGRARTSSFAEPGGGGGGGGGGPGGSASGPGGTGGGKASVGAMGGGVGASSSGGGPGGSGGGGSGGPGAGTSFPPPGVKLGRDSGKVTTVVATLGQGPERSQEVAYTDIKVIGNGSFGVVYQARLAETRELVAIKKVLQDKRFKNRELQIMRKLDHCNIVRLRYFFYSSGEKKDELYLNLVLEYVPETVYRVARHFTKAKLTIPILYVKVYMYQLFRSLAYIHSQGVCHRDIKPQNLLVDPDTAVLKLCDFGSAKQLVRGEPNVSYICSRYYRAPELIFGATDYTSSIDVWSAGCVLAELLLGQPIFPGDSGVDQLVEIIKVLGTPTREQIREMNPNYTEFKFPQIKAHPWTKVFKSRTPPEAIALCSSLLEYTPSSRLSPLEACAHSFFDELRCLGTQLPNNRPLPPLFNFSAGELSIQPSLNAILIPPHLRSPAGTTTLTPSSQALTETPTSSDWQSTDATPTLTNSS
row,SMILES,IC50 [µM]
1,CCn1cc(C(=O)O)c(=O)c2c(N)cc(N[C@@H]3C[C@H]3c3ccccc3)cc21 (relative stereo) [Compound I-59],4.68
2,CCn1cc(C(=O)O)c(=O)c2c(N)c(F)c(Nc3ccc([C@@H]4C[C@H]4N)cc3)cc21 (relative stereo) [Compound I-62],0.449
3,CCn1cc(C(=O)O)c(=O)c2c(N)c(F)c(NC3CC(N[C@@H]4C[C@H]4c4ccccc4)C3)cc21 (relative stereo) [Compound I-70],0.207
4,CCn1cc(C(=O)O)c(=O)c2c(N)c(F)c(NCCN[C@@H]3C[C@]34CCc3ccccc34)cc21 (relative stereo) [Compound I-81],0.457
5,CCn1cc(C(=O)O)c(=O)c2c(N)c(F)c(NCCN[C@@H]3C[C@@]34CCc3ccccc34)cc21 (relative stereo) [Compound I-82],1.55
6,CCn1cc(C(N)=O)c(=O)c2c(N)c(F)c(NCCN[C@H]3C[C@@H]3c3ccccc3)cc21 (relative stereo) [Compound I-83],0.0033
7,CCn1cc(C#N)c(=O)c2c(N)c(F)c(NCCN[C@@H]3C[C@H]3c3ccccc3)cc21 (relative stereo) [Compound I-84],0.0027
8,Cn1cc(C(=O)O)c(=O)c2c(N)c(F)c(NCCN[C@@H]3C[C@H]3c3ccccc3)cc21 (relative stereo) [Compound I-86],0.919
9,CCCn1cc(C(=O)O)c(=O)c2c(N)c(F)c(NCCN[C@@H]3C[C@H]3c3ccccc3)cc21 (relative stereo) [Compound I-87],0.114
10,CC(C)n1cc(C(=O)O)c(=O)c2c(N)c(F)c(NCCN[C@@H]3C[C@H]3c3ccccc3)cc21 (relative stereo) [Compound I-88],0.0195
11,Nc1c(F)c(NCCN[C@@H]2C[C@H]2c2ccccc2)cc2c1c(=O)c(C(=O)O)cn2C1CC1 (relative stereo) [Compound I-89],0.393

# Target: GSK3β (Homo sapiens, UniProt P49841)
# Sequence (P49841 whole entry): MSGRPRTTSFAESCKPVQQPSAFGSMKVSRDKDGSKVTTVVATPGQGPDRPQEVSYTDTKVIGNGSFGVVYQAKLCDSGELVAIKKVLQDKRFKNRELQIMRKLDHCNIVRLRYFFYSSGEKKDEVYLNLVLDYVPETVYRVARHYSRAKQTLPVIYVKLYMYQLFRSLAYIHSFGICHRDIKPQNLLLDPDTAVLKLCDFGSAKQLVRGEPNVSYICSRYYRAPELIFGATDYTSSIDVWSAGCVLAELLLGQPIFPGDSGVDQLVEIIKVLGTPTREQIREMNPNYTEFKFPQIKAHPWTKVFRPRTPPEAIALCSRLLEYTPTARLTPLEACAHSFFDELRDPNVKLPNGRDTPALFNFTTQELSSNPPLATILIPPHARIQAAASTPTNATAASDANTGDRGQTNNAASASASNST
# Experiment: GSK3β in vitro enzymatic assay (Kinase-Glo Max luminescence)
# Format: biochemical
# Settings: recombinant human GSK3, 10 μM ATP; approximate values; read-out: Potency GSK3beta
# Method: as §1, §2, §3, §4, §5
row,SMILES,IC50 [µM]
1,CCn1cc(C(=O)O)c(=O)c2c(N)cc(N[C@@H]3C[C@H]3c3ccccc3)cc21 (relative stereo) [Compound I-59],4.43
2,CCn1cc(C(=O)O)c(=O)c2c(N)c(F)c(Nc3ccc([C@@H]4C[C@H]4N)cc3)cc21 (relative stereo) [Compound I-62],0.504
3,CCn1cc(C(=O)O)c(=O)c2c(N)c(F)c(NC3CC(N[C@@H]4C[C@H]4c4ccccc4)C3)cc21 (relative stereo) [Compound I-70],0.169
4,CCn1cc(C(=O)O)c(=O)c2c(N)c(F)c(NCCN[C@@H]3C[C@]34CCc3ccccc34)cc21 (relative stereo) [Compound I-81],0.546
5,CCn1cc(C(=O)O)c(=O)c2c(N)c(F)c(NCCN[C@@H]3C[C@@]34CCc3ccccc34)cc21 (relative stereo) [Compound I-82],3.38
6,CCn1cc(C(N)=O)c(=O)c2c(N)c(F)c(NCCN[C@H]3C[C@@H]3c3ccccc3)cc21 (relative stereo) [Compound I-83],0.0034
7,CCn1cc(C#N)c(=O)c2c(N)c(F)c(NCCN[C@@H]3C[C@H]3c3ccccc3)cc21 (relative stereo) [Compound I-84],0.0022
8,Cn1cc(C(=O)O)c(=O)c2c(N)c(F)c(NCCN[C@@H]3C[C@H]3c3ccccc3)cc21 (relative stereo) [Compound I-86],2.17
9,CCCn1cc(C(=O)O)c(=O)c2c(N)c(F)c(NCCN[C@@H]3C[C@H]3c3ccccc3)cc21 (relative stereo) [Compound I-87],0.157
10,CC(C)n1cc(C(=O)O)c(=O)c2c(N)c(F)c(NCCN[C@@H]3C[C@H]3c3ccccc3)cc21 (relative stereo) [Compound I-88],0.083
11,Nc1c(F)c(NCCN[C@@H]2C[C@H]2c2ccccc2)cc2c1c(=O)c(C(=O)O)cn2C1CC1 (relative stereo) [Compound I-89],0.308

# Target: LSD-1 (Homo sapiens, UniProt O60341)
# Experiment: LSD-1 A-screen (AlphaScreen) demethylase enzymatic assay
# Format: biochemical
# Settings: 50 μM compound; approximate values; read-out: Potency LSD-1 % Inhibition at 50 μM
# Method: (§6) Enzymatic activities of compounds of the present disclosure can be tested with recombinant human LSD using an in vitro enzymatic assay to determine the ability of the compounds of the present disclosure to inhibit LSD-1 and LSD2. Examples of the assay are provided below.
# (§7) All of the enzymatic reactions were conducted in duplicate at room temperature for 60 minutes in a 10 μL mixture containing assay buffer, histone H3 peptide substrate, demthylase enzyme, and the test compound. These 10 μL reactions were carried out in wells of a 384-well Optiplate (PerkinElmer). The dilution of the compounds was first performed in 100% DMSO with the highest concentration at 5 mM Each intermediate compound dilution (in 100% DMSO) was then directly diluted 30× fold into assay buffer for 3.3× concentration (DMSO). […] From this intermediate step, 3 μL of compound was added to 4 μL of demethylase enzyme dilution was incubated for 30 minutes at room temperature. After this incubation, 3 μL of peptide substrate was added. The final DMSO concentration was 1%. After enzymatic reactions, 5 μL of anti-Mouse or anti-Rabbit Acceptor beads (PerkinElmer, diluted 1:500 with 1× detection buffer) and […] (BPS, diluted 1:800 with 1× detection buffer) were added to the reaction mix. After brief shaking, the plate was incubated for 30 minutes. Finally, 10 μL of AlphaScreen™ Streptavidin-conjugated donor beads (Perkin, diluted 1:125 with 1× detection buffer) were added. After 30 minutes, the samples were measured in an AlphaScreen microplate reader (EnSpire Alpha 2390 Multilabel Reader, Perkin Elmer).
# (§8) Enzyme activity assays were performed in duplicates at each concentration. The A-screen intensity data were analyzed and compared. In the absence of the compound, the intensity in each data set was defined as 100% (Ce) activity. In the absence of enzyme, the intensity in each data set was defined as 0% (C0) activity. The percent activity in the presence of each compound was calculated according to the following equation: % activity=(C−C0)/(Ce−C0), where C=the intensity in the presence of the compound.
# as §5, with “value” for “values”, “was” for “were”, “IC50” for “ICs,”
row,SMILES,inhibition at 50 µM [%]
1,CCn1cc(C(=O)O)c(=O)c2c(N)cc(N[C@@H]3C[C@H]3c3ccccc3)cc21 (relative stereo) [Compound I-59],11

# Same assay, conditions: approximate values; read-out: Potency LSD-1 IC50
row,SMILES,IC50 [µM]
1,CCn1cc(C(=O)O)c(=O)c2c(N)c(F)c(Nc3ccc([C@@H]4C[C@H]4N)cc3)cc21 (relative stereo) [Compound I-62],> 100
2,CCn1cc(C(=O)O)c(=O)c2c(N)c(F)c(NC3CC(N[C@@H]4C[C@H]4c4ccccc4)C3)cc21 (relative stereo) [Compound I-70],1.1
3,CCn1cc(C(=O)O)c(=O)c2c(N)c(F)c(NCCN[C@@H]3C[C@]34CCc3ccccc34)cc21 (relative stereo) [Compound I-81],0.058
4,CCn1cc(C(=O)O)c(=O)c2c(N)c(F)c(NCCN[C@@H]3C[C@@]34CCc3ccccc34)cc21 (relative stereo) [Compound I-82],0.19
5,CCn1cc(C(N)=O)c(=O)c2c(N)c(F)c(NCCN[C@H]3C[C@@H]3c3ccccc3)cc21 (relative stereo) [Compound I-83],0.23
6,CCn1cc(C#N)c(=O)c2c(N)c(F)c(NCCN[C@@H]3C[C@H]3c3ccccc3)cc21 (relative stereo) [Compound I-84],1.4
7,Cn1cc(C(=O)O)c(=O)c2c(N)c(F)c(NCCN[C@@H]3C[C@H]3c3ccccc3)cc21 (relative stereo) [Compound I-86],1.9
8,CCCn1cc(C(=O)O)c(=O)c2c(N)c(F)c(NCCN[C@@H]3C[C@H]3c3ccccc3)cc21 (relative stereo) [Compound I-87],3.3
9,CC(C)n1cc(C(=O)O)c(=O)c2c(N)c(F)c(NCCN[C@@H]3C[C@H]3c3ccccc3)cc21 (relative stereo) [Compound I-88],2.6
10,Nc1c(F)c(NCCN[C@@H]2C[C@H]2c2ccccc2)cc2c1c(=O)c(C(=O)O)cn2C1CC1 (relative stereo) [Compound I-89],7.4

# Target: T1, LSD2 (Homo sapiens, UniProt Q8NB78)
# T1 sequence (Q8NB78 1-822): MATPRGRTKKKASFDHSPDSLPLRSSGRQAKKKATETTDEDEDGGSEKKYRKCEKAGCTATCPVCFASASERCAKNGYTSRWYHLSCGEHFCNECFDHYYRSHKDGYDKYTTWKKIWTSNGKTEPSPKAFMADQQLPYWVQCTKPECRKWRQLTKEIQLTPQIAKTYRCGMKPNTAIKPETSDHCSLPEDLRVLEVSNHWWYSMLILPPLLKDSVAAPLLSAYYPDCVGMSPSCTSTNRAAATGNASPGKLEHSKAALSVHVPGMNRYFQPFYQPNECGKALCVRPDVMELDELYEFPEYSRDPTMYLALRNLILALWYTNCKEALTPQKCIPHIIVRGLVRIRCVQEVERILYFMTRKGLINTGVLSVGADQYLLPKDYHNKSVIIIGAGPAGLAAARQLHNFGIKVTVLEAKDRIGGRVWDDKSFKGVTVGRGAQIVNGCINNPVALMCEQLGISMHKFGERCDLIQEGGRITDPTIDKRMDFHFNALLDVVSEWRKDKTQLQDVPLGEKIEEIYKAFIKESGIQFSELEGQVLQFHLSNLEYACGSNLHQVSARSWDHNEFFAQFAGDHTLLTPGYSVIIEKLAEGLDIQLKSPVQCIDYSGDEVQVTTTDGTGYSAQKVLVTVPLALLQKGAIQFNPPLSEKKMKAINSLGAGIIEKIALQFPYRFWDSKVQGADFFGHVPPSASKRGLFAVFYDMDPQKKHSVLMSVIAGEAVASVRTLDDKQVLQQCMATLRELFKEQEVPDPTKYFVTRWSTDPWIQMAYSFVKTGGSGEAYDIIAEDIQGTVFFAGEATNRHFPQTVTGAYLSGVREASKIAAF
# Experiment: LSD2 A-screen (AlphaScreen) demethylase enzymatic assay
# Format: biochemical
# Settings: 50 μM compound; approximate values; read-out: Potency LSD-2 % Inhibition at 50 μM
# Method: as §6, §7, §8
# as §5, with “value” for “values”, “was” for “were”, “IC50” for “ICs,”
row,SMILES,inhibition at 50 µM [%]
1,CCn1cc(C(=O)O)c(=O)c2c(N)cc(N[C@@H]3C[C@H]3c3ccccc3)cc21 (relative stereo) [Compound I-59],24
2,CCn1cc(C(=O)O)c(=O)c2c(N)c(F)c(NCCN[C@@H]3C[C@@]34CCc3ccccc34)cc21 (relative stereo) [Compound I-82],76
3,Cn1cc(C(=O)O)c(=O)c2c(N)c(F)c(NCCN[C@@H]3C[C@H]3c3ccccc3)cc21 (relative stereo) [Compound I-86],6
4,CCCn1cc(C(=O)O)c(=O)c2c(N)c(F)c(NCCN[C@@H]3C[C@H]3c3ccccc3)cc21 (relative stereo) [Compound I-87],15
5,CC(C)n1cc(C(=O)O)c(=O)c2c(N)c(F)c(NCCN[C@@H]3C[C@H]3c3ccccc3)cc21 (relative stereo) [Compound I-88],14
6,Nc1c(F)c(NCCN[C@@H]2C[C@H]2c2ccccc2)cc2c1c(=O)c(C(=O)O)cn2C1CC1 (relative stereo) [Compound I-89],5

# Same assay, conditions: approximate values; read-out: Potency LSD-2 IC50
row,SMILES,IC50 [µM]
1,CCn1cc(C(=O)O)c(=O)c2c(N)c(F)c(Nc3ccc([C@@H]4C[C@H]4N)cc3)cc21 (relative stereo) [Compound I-62],49
2,CCn1cc(C(=O)O)c(=O)c2c(N)c(F)c(NC3CC(N[C@@H]4C[C@H]4c4ccccc4)C3)cc21 (relative stereo) [Compound I-70],> 100
3,CCn1cc(C(=O)O)c(=O)c2c(N)c(F)c(NCCN[C@@H]3C[C@]34CCc3ccccc34)cc21 (relative stereo) [Compound I-81],43
4,CCn1cc(C(N)=O)c(=O)c2c(N)c(F)c(NCCN[C@H]3C[C@@H]3c3ccccc3)cc21 (relative stereo) [Compound I-83],> 100
5,CCn1cc(C#N)c(=O)c2c(N)c(F)c(NCCN[C@@H]3C[C@H]3c3ccccc3)cc21 (relative stereo) [Compound I-84],41
